Experimental data published in patent US20250186960A1, “BIODEGRADABLE MICROCAPSULES AND A METHOD FOR THEIR PREPARATION” (priority 2022, published 2025).

Assay: Microcapsule fragrance loading quantification via GC
Format: physicochemical
Conditions: for Composition 2 (encapsulate wt %): level of the fragrance material in microcapsules of Example 21B; for Composition 2 (oil wt %) / Composition 1 (oil wt %): share of the fragrance material in the encapsulated oil; for Composition 2 (oil wt %): Example 21B; for Composition 1 (encapsulate wt %): level of the fragrance material in microcapsules of Example 21A; for Composition 1 (oil wt %): Example 21A
Description: Fragrance levels in the microcapsule can be determined by extraction of the fragrance and injection into a GC column. An Agilent 8890 gas chromatograph is used, equipped with a HP-5MS column, and using hydrogen as carrier gas. Quantification is achieved by use of a calibration curve for the given fragrance material diluted in ethanol.
To measure the total level of fragrance in an encapsulate sample, the capsules must first be broken by sonication, for example 1.0 g of encapsulate in 2.0 g of DI water with a Bandelin Sonopuls HD4200 ultrasonicator, equipped with probe TS104 for 1 minute at 30% amplitude (around 1.5 KJ in total). A few drops of aqueous potassium hydroxide solution (10% wt) are added before sonication to raise the pH of the solution above 11. While sonicating, ice is used to keep the temperature below room temperature (20° C.) to avoid any loss of fragrance through evaporation. A microscope is used to check visually if the capsules are fully broken. If not, sonication is repeated. Ethanol is added to the mixture, which is then mixed and centrifuged. The supernatant is collected and retained as the first extraction. The residue is mixed with ethanol again and centrifuged. The supernatant is collected and added to the first extraction. This is then diluted as appropriate and injected into the GC for analysis.
To measure the level of free fragrance in the sample (i.e. the level of un-encapsulated fragrance), the encapsulate slurry is well mixed in DI water and filtered using a sterile cell strainer (40 μm Nylon mesh). The filtrate is diluted with ethanol and injected into the GC for analysis.
The encapsulated fragrance level is the difference between the total fragrance and the free fragrance levels.

Row | Composition 2 (encapsulate wt %) [wt %] | Composition 2 (oil wt %) [wt %] | Composition 1 (encapsulate wt %) [wt %] | Composition 1 (oil wt %) [wt %] | Compound
1 | 0.53 | 18.1 | 0.54 | 29.5 | C/C=C/C(=O)C1C(C)C=CCC1(C)C (centres unmarked) [Delta damascone]
2 | 0.63 | 21.5 | – | – | C=C(C)[C@H]1CC=C(C)CC1 [Dipentene]
3 | 0.59 | 20.1 | – | – | c1ccc(Oc2ccccc2)cc1 [Diphenyl oxide]
4 | – | – | 0.11 | 6.0 | CC(C)=CCC/C(C)=C/CO [Geraniol]

The remaining lines, values behind:

Row | Compound | Composition 2 (encapsulate wt %) [wt %] | Composition 2 (oil wt %) [wt %] | Composition 1 (encapsulate wt %) [wt %] | Composition 1 (oil wt %) [wt %]
5 | O=C(OCc1ccccc1)c1ccccc1O [Benzyl salicylate] | 0.66 | 22.5 | – | –
6 | OC/C=C/c1ccccc1 [Cinnamic alcohol] | – | – | 0.01 | 0.5
7 | CCC=C(C)C(O)CCCCC (centres unmarked) [Undecavertol] | – | – | 0.39 | 21.3
8 | CCCCCCCCCCCC#N [dodecane nitrile] | – | – | 0.79 | 43.2
9 | Ortho tertiary butyl cyclo hexyl acetate | 0.52 | 17.7 | – | –
